“And” between values parts separate entries of the source, which are not always exact repeats. Equal values may be shown once. Inconclusive results and toxic doses are left out. Cut-off read from the data, not from the text of the source: active = T/C of 150% or more; inactive = T/C below 125%.
System: L1210 leukemia ip in BDF1 mice, survival T/C
Test: NCI In Vivo Anticancer Drug Screen. Data for tumor model L1210 Leukemia (intraperitoneal) in B6D2F1 (BDF1) mice
Conditions: endpoint: mean survival time, higher = longer survival
Method in brief: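 Transplanted-tumor mice were given test agent; controls received vehicle only. Survival readings from the two groups were divided (treated over control).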

[1] = dose: 100.0 mg/kg/injection, schedule: Q04DX003 (ip), vehicle: saline with Tween-80
[2] = dose: 200.0 mg/kg/injection, schedule: Q04DX003 (ip), vehicle: saline with Tween-80
[3] = dose: 50.0 mg/kg/injection, schedule: Q01DX009 (ip), vehicle: saline
[4] = dose: 50.0 mg/kg/injection, schedule: Q01DX001 (ip), vehicle: carboxymethylcellulose (CMC)
[5] = dose: 100.0 mg/kg/injection, schedule: Q01DX001 (ip), vehicle: carboxymethylcellulose (CMC)
[6] = dose: 100.0 mg/kg/injection, schedule: Q01DX009 (ip), vehicle: Klucel (hydroxypropylcellulose) (HPC)
[7] = dose: 100.0 mg/kg/injection, schedule: Q04DX003 (ip), vehicle: Klucel (hydroxypropylcellulose) (HPC)
[8] = dose: 200.0 mg/kg/injection, schedule: Q01DX001 (ip), vehicle: carboxymethylcellulose (CMC)
[9] = dose: 200.0 mg/kg/injection, schedule: Q01DX009 (ip), vehicle: Klucel (hydroxypropylcellulose) (HPC)
[10] = dose: 200.0 mg/kg/injection, schedule: Q04DX003 (ip), vehicle: Klucel (hydroxypropylcellulose) (HPC)
[11] = dose: 400.0 mg/kg/injection, schedule: Q01DX001 (ip), vehicle: carboxymethylcellulose (CMC)
[12] = dose: 400.0 mg/kg/injection, schedule: Q01DX009 (ip), vehicle: Klucel (hydroxypropylcellulose) (HPC)
[13] = dose: 400.0 mg/kg/injection, schedule: Q04DX003 (ip), vehicle: Klucel (hydroxypropylcellulose) (HPC)
[14] = dose: 100.0 mg/kg/injection, schedule: Q01DX009 (ip), vehicle: saline
[15] = dose: 200.0 mg/kg/injection, schedule: Q01DX009 (ip), vehicle: saline
[16] = dose: 400.0 mg/kg/injection, schedule: Q04DX003 (ip), vehicle: saline with Tween-80
[17] = dose: 100.0 mg/kg/injection, schedule: Q04DX003 (ip), vehicle: saline
[18] = dose: 200.0 mg/kg/injection, schedule: Q04DX003 (ip), vehicle: saline
[19] = dose: 400.0 mg/kg/injection, schedule: Q04DX003 (ip), vehicle: saline
[20] = dose: 100.0 mg/kg/injection, schedule: Q01DX001 (ip), vehicle: saline
[21] = dose: 200.0 mg/kg/injection, schedule: Q01DX001 (ip), vehicle: saline
[22] = dose: 400.0 mg/kg/injection, schedule: Q01DX001 (ip), vehicle: saline

Measured: T/C

CC(=N\N=C(N)N)/C(=N/N=C(N)N)c1ccccc1
inactive: dose: 3.75 mg/kg/injection, schedule: Q01DX Z (ip), vehicle: saline 92 % of control | dose: 7.5 mg/kg/injection, schedule: Q01DX Z (ip), vehicle: saline 96 % of control | dose: 15.0 mg/kg/injection, schedule: Q01DX Z (ip), vehicle: saline 95 % of control and 102 % of control | dose: 30.0 mg/kg/injection, schedule: Q01DX Z (ip), vehicle: saline 92 % of control | dose: 240.0 mg/kg/injection, schedule: Q01DX009 (oral), vehicle: saline 88 % of control

CC(=O)Nc1nc(/C=C/C(=O)CCl)c(CCCCc2ccccc2)c(=O)[nH]1
inactive: dose: 50.0 mg/kg/injection, schedule: Q01DX001 (ip), vehicle: Klucel (hydroxypropylcellulose) (HPC) 93 % of control | dose: 100.0 mg/kg/injection, schedule: Q01DX001 (ip), vehicle: Klucel (hydroxypropylcellulose) (HPC) 102 % of control | dose: 200.0 mg/kg/injection, schedule: Q01DX001 (ip), vehicle: Klucel (hydroxypropylcellulose) (HPC) 96 % of control

CCC1(CC)C(=O)C=CNC1=O
inactive: dose: 50.0 mg/kg/injection, schedule: Q04DX003 (ip), vehicle: saline with Tween-80 95 % of control | [1] 107 % of control | [2] 102 % of control

CC(C)(C)NC=O
inactive: [3] 98 % of control | dose: 75.0 mg/kg/injection, schedule: Q01DX009 (ip), vehicle: saline 93 % of control | dose: 75.0 mg/kg/injection, schedule: Q04DX003 (ip), vehicle: saline 106 % of control | dose: 150.0 mg/kg/injection, schedule: Q04DX003 (ip), vehicle: saline 96 % of control

CC(C)CCS(=O)(=O)OCCCCOS(=O)(=O)CCC(C)C
inactive: [4] 109 % of control | [5] 104 % of control | [6] 106 % of control | [7] 105 % of control | [8] 101 % of control | [9] 102 % of control | [10] 105 % of control | [11] 103 % of control | [12] 109 % of control | [13] 106 % of control

CCC(=O)NC(CC(C)C)C(=O)NC(CC(C)C)C(=O)NC(C=O)CCCN=C(N)N (centres undefined) (tested in a mixture with another compound)
inactive: dose: 25.0 mg/kg/injection, schedule: Q04DX002 (ip), vehicle: saline 98 % of control | dose: 50.0 mg/kg/injection, schedule: Q04DX002 (ip), vehicle: saline 91 % of control | dose: 100.0 mg/kg/injection, schedule: Q04DX002 (ip), vehicle: saline 91 % of control

CCN(CC)CCOC(=O)c1ccc(Cl)cc1
inactive: [3] 100 % of control | [14] 96 % of control | [15] 96 % of control

CC(C)(C)OC(=O)CSC#N
inactive: dose: 5.0 mg/kg/injection, schedule: Q01DX001 (ip), vehicle: saline 101 % of control | dose: 10.0 mg/kg/injection, schedule: Q01DX001 (ip), vehicle: saline 95 % of control | dose: 20.0 mg/kg/injection, schedule: Q01DX001 (ip), vehicle: saline 101 % of control

CC1Oc2ccccc2OC1C(=O)NN (centres undefined)
inactive: [1] 95 % of control | [2] 97 % of control | [16] 106 % of control

Cc1cc(N(CCCl)CCCl)ccc1C=Nc1ccc(S(N)(=O)=O)cc1
inactive: [4] 95 % of control | [5] 104 % of control | [8] 101 % of control | [11] 104 % of control

COc1ccc(NC(=O)Nc2cc(C)ccc2C)cc1
inactive: [6] 89 % of control | [7] 93 % of control | [9] 86 % of control | [10] 93 % of control | [12] 92 % of control | [13] 87 % of control

CSc1nc(NC(=O)CCl)cc(NC(=O)CCl)n1
inactive: dose: 12.5 mg/kg/injection, schedule: Q01DX005 (ip), vehicle: saline 105 % of control | dose: 25.0 mg/kg/injection, schedule: Q01DX005 (ip), vehicle: saline 112 % of control

CCOC(=O)N1c2ccc(Cl)cc2C=CC1C#N (centres undefined)
inactive: dose: 100.0 mg/kg/injection, schedule: Q01DX009 (ip), vehicle: gum acacia 91 % of control | dose: 100.0 mg/kg/injection, schedule: Q04DX003 (ip), vehicle: gum acacia 103 % of control | dose: 200.0 mg/kg/injection, schedule: Q01DX009 (ip), vehicle: gum acacia 91 % of control | dose: 200.0 mg/kg/injection, schedule: Q04DX003 (ip), vehicle: gum acacia 97 % of control | dose: 400.0 mg/kg/injection, schedule: Q04DX003 (ip), vehicle: gum acacia 92 % of control

CC(=O)OC1C=C2CCCCC2(C)CC1 (centres undefined)
inactive: dose: 50.0 mg/kg/injection, schedule: Q04DX002 (ip), vehicle: saline with Tween-80 96 % of control | dose: 100.0 mg/kg/injection, schedule: Q04DX002 (ip), vehicle: saline with Tween-80 96 % of control | dose: 200.0 mg/kg/injection, schedule: Q04DX002 (ip), vehicle: saline with Tween-80 111 % of control

Cc1ccc(C(C)(C)Cl)cc1O
inactive: dose: 100.0 mg/kg/injection, schedule: Q01DX009 (ip), vehicle: saline with Tween-80 93 % of control | [1] 96 % of control | dose: 200.0 mg/kg/injection, schedule: Q01DX009 (ip), vehicle: saline with Tween-80 93 % of control | [2] 102 % of control | dose: 400.0 mg/kg/injection, schedule: Q01DX009 (ip), vehicle: saline with Tween-80 98 % of control | [16] 102 % of control

O=[N+]([O-])c1ccc(N/N=C/CC(O)CO)c([N+](=O)[O-])c1 (centres undefined)
inactive: [14] 89 % of control | [17] 90 % of control | [15] 86 % of control | [18] 90 % of control | dose: 400.0 mg/kg/injection, schedule: Q01DX009 (ip), vehicle: saline 94 % of control | [19] 91 % of control

C=CC1CC=CCC1 (centres undefined)
inactive: [1] 98 % of control | [2] 97 % of control | [16] 102 % of control

O=[N+]([O-])c1ccc(/C=C/c2ccccc2)c([N+](=O)[O-])c1
inactive: [7] 104 % of control | [10] 98 % of control | [13] 101 % of control

CCCCOB1OC(C)CC(C)(C)O1 (centres undefined)
inactive: [20] 106 % of control | [21] 97 % of control | [22] 99 % of control

CC1=COC(C)(C=O)CC1 (centres undefined)
inactive: dose: 222.0 mg/kg/injection, schedule: Q01DX Z (ip), vehicle: methylcellulose (MC) 94 % of control | dose: 333.0 mg/kg/injection, schedule: Q01DX Z (ip), vehicle: methylcellulose (MC) 98 % of control | dose: 500.0 mg/kg/injection, schedule: Q01DX Z (ip), vehicle: methylcellulose (MC) 88 % of control

CC1CC(C)OS(=O)O1 (centres undefined)
inactive: dose: 44.0 mg/kg/injection, schedule: Q01DX Z (ip), vehicle: saline 104 % of control | dose: 66.0 mg/kg/injection, schedule: Q01DX Z (ip), vehicle: saline 102 % of control | dose: 75.0 mg/kg/injection, schedule: Q01DX001 (ip), vehicle: acetone 103 % of control | dose: 100.0 mg/kg/injection, schedule: Q01DX Z (ip), vehicle: saline 91 % of control | dose: 150.0 mg/kg/injection, schedule: Q01DX001 (ip), vehicle: acetone 103 % of control | dose: 300.0 mg/kg/injection, schedule: Q01DX001 (ip), vehicle: acetone 101 % of control

CCCCCCCNN=C(N)N
inactive: [20] 98 % of control | [17] 111 % of control | [21] 98 % of control | [18] 95 % of control | [22] 97 % of control | [19] 117 % of control

CCC[CH2][Sn]1([CH2]CCC)[CH]=CCC=[C]1C
inactive: dose: 6.25 mg/kg/injection, schedule: Q01DX009 (ip), vehicle: saline with Tween-80 93 % of control | dose: 12.5 mg/kg/injection, schedule: Q01DX009 (ip), vehicle: saline with Tween-80 93 % of control | dose: 25.0 mg/kg/injection, schedule: Q01DX009 (ip), vehicle: saline with Tween-80 101 % of control and 89 % of control

CSc1ncnc2c1ncn2C1CCCC1
inactive: [4] 116 % of control | [5] 104 % of control | [8] 107 % of control

Reference: PubChem BioAssay AID248 (DTP/NCI, 2004)
